Common to all, as to assay type: functional
Holding throughout (design): scale not given: the % may be the effect or the level left

Assay [1] has as its system Mycobacterium tuberculosis. Put plainly: Antitubercular activity against streptomycin, isoniazid, rifampicin,ethambutol-resistant Mycobacterium tuberculosis clinical isolate assessed as reduction in RLU at 500 ug/mL after 72 hrs by luciferase reporter phage assay. For orientation: A reporter such as luciferase makes a cellular process visible.
The test system of assay [2] is Mycobacterium tuberculosis. Put plainly: Antitubercular activity against streptomycin, isoniazid, rifampicin,ethambutol-resistant Mycobacterium tuberculosis clinical isolate assessed as reduction in RLU at 100 ug/mL after 72 hrs by luciferase reporter phage assay.
In assay [3] the test system is Mycobacterium tuberculosis. Nature of the assay: Antitubercular activity against streptomycin, isoniazid, rifampicin,ethambutol-resistant Mycobacterium tuberculosis clinical isolate assessed as reduction in RLU at 0.5 ug/mL after 72 hrs by luciferase reporter phage assay.
In assay [4] the test system is Mycobacterium tuberculosis. Put plainly: Antitubercular activity against streptomycin, isoniazid, rifampicin,ethambutol-resistant Mycobacterium tuberculosis clinical isolate assessed as reduction in RLU at 2 ug/mL after 72 hrs by luciferase reporter phage assay.

With `COc1ccc(-c2[nH]c(=O)[nH]c(=O)c2C#N)cc1O`, the Activity in assay [1] was 33.49%; in assay [2] it was 25.47%.
In the same order, the values of `N#Cc1c(-c2ccc(Cl)cc2)[nH]c(=S)[nH]c1=O` are 66.65% and 61.35%.
On to `NNC(=O)c1ccncc1` [ISONIAZID], for which the Activity in assay [3] is reported as 89.6%.
As for `CO[C@H]1/C=C/O[C@@]2(C)Oc3c(C)c(O)c4c(O)c(c(/C=N/N5CCN(C)CC5)c(O)c4c3C2=O)NC(=O)/C(C)=C\C=C\[C@H](C)[C@H](O)[C@@H](C)[C@@H](O)[C@@H](C)[C@H](OC(C)=O)[C@@H]1C` [RIFAMPIN], the Activity in assay [4] turned out to be 29.19%.
Consider `N#Cc1c(-c2cccc(Cl)c2)[nH]c(=O)[nH]c1=O`, for which the Activity came out at 52.77% in assay [1] and 50.1% in assay [2].
In the same order, the values of `N#Cc1c(-c2ccc(Br)cc2)[nH]c(=S)[nH]c1=O` are 74.91% and 38.03%.
Regarding `N#Cc1c(-c2ccc(F)cc2)[nH]c(=O)[nH]c1=O`, the Activity in assay [1] is listed as 47.86%; in assay [2], 38.38%.

(Values after ChEMBL document CHEMBL2203181, “Microwave-assisted synthesis, molecular docking and antitubercular activity of 1,2,3,4-tetrahydropyrimidine-5-carbonitrile derivatives” (2012).)
